{"source": "patent US11534446B2", "about": "“Pharmaceutical composition comprising 3-beta-hydroxy-5-alpha-pregnan-20-one with improved storage and solubility properties” (ASARINA PHARMA AB, priority 2010, dated 2022)", "assay": "UC1010 concentration in 0.2 μm filtrate of suspensions in sesame oil with cholesterol (Example 77)", "format": "physicochemical", "conditions": "sesame oil suspension", "description": "Suspensions of 3-beta-hydroxy-5-alpha-pregnan-20-one were prepared for investigation of solubility as follows: cholesterol was first dissolved at room temperature in sesame oil at 10 and 20 mg/ml, respectively. Suspensions of 3-beta-hydroxy-5-alpha-pregnan-20-one in sesame oil with different amounts of cholesterol were prepared on a magnetic stirrer at about 500 rpm using a conventional Teflon coated stir bar, at room temperature for several days, with occasional cycling to 2-8° C. At this time, the particles have become substantially smaller. Thereafter, samples of the respective suspensions were filtered through a 0.2 μm filter and analyzed with regard to concentration of 3-beta-hydroxy-5-alpha-pregnan-20-one. The results are presented in Table 3 and FIG. 2 where it can be seen that increasing the amounts of cholesterol increases the soluble fraction of 3-beta-hydroxy-5-alpha-pregnan-20-one. […] FIGS. 3a and 3b show microscopy pictures taken at 5× enlargement of suspensions with a 3-beta-hydroxy-5-alpha-pregnan-20-one concentration of 10 mg/g and a cholesterol:3-beta-hydroxy-5-alpha-pregnan-20-one ratio of 1:1 immediately upon mixing (3a) and after several days of stirring (3b)."}
{"smiles": "CC(=O)[C@H]1CC[C@H]2[C@@H]3CC[C@H]4C[C@@H](O)CC[C@]4(C)[C@H]3CC[C@]12C", "note": "[3-beta-hydroxy-5-alpha-pregnan-20-one]", "values": [{"measurement": "3-beta-hydroxy-5-alpha-pregnan-20-one concentration in filtrate", "setting": "initial concentration 10 mg/g, weight ratio cholesterol to UC1010 0:1, 0.2 μm filter", "value": 1, "unit": "mg/mL"}, {"measurement": "3-beta-hydroxy-5-alpha-pregnan-20-one concentration in filtrate", "setting": "initial concentration 10 mg/g, weight ratio cholesterol to UC1010 1:1, 0.2 μm filter", "value": 1.8, "unit": "mg/mL"}, {"measurement": "3-beta-hydroxy-5-alpha-pregnan-20-one concentration in filtrate", "setting": "initial concentration 10 mg/g, weight ratio cholesterol to UC1010 2:1, 0.2 μm filter", "value": 2.2, "unit": "mg/mL"}, {"measurement": "3-beta-hydroxy-5-alpha-pregnan-20-one concentration in filtrate", "setting": "initial concentration 40 mg/g, weight ratio cholesterol to UC1010 1:2, 0.2 μm filter", "value": 1.9, "unit": "mg/mL"}, {"measurement": "3-beta-hydroxy-5-alpha-pregnan-20-one concentration in filtrate", "setting": "initial concentration 40 mg/g, weight ratio cholesterol to UC1010 1:4, 0.2 μm filter", "value": 1.4, "unit": "mg/mL"}]}
